In patent US9249102B2 (priority 2012, dated 2016):
Where two headings read alike, the source gives them in different places.

Tests used:
Haemonchus contortus = test: Method A: Haemonchus contortus L1 larvae, microtitre plate screen; conditions: 96 h, read-out: motility inhibition
[1] = test system: microfilaria of Dirofilaria immitis; test: Method F: microfilaria of Dirofilaria immitis, survival at 24 hours
[2] = survival of microfilaria at 24 hours

| SMILES | inhibition at 5 µg/mL (Haemonchus contortus) | EC50 [1] | EC50 [1, 2] |
| --- | --- | --- | --- |
| O=C(NCCO[C@H]1CC[C@H](Nc2ccc([N+](=O)[O-])c(C(F)(F)F)c2)CC1)C(=O)NCC1Cc2cc(F)ccc2O1 (some centres unmarked) [Compound 217] | ≥ 90% | < 1 µg/mL | – |
| CC(CN1CCN(c2ccc3cc(F)ccc3n2)CC1)C(=O)N1CCC(Nc2ccc([N+](=O)[O-])c(C(F)(F)F)c2)CC1 (centres unmarked) [Compound 100, 3-[4-(6-fluoroquinolin-2-yl)piperazin-1-yl]-2-methyl-1-(4-[[4-nitro-3-(trifluoromethyl)phenyl]amino]piperidin-1-yl)propan-1-one] | ≥ 90% | – | < 5 µg/mL |
| O=C(CO[C@H]1CC[C@H](Nc2ccc([N+](=O)[O-])c(C(F)(F)F)c2)CC1)N1CCN(c2ccc3cc(Cl)ccc3c2)CC1 [Compound 233, 1-[4-(6-chloro-2-naphthyl)piperazin-1-yl]-2-[4-[4-nitro-3-(trifluoromethyl)anilino]cyclohexoxy]ethanone] | ≥ 90% | – | < 1 µg/mL |
| O=C(CO[C@H]1CC[C@H](Nc2ccc([N+](=O)[O-])c(C(F)(F)F)c2)CC1)N1CCc2cc(C(F)(F)F)ccc2C1 [Compound 194, 2-[(4-[[4-nitro-3-(trifluoromethyl)phenyl]amino]cyclohexyl)oxy]-1-[6-(trifluoromethyl)-1,2,3,4-tetrahydroisoquinolin-2-yl]ethan-1-one] | ≥ 90% | – | < 1 µg/mL |
| CC(c1oc2ccc(C(F)(F)F)cc2c1Cl)N1CCN(C(=O)CO[C@H]2CC[C@H](Nc3ccc([N+](=O)[O-])c(C(F)(F)F)c3)CC2)CC1 (some centres unmarked) [Compound 255, 2-1-(4-[1-[3-chloro-5-(trifluoromethyl)-1-benzofuran-2-yl]ethyl]piperazin-1-yl)-2-[[4-[[4-nitro-3-(trifluoromethyl)phenyl]amino]cyclohexyl]oxy]ethan-1-one] | ≥ 90% | – | < 1 µg/mL |
| O=C(COc1ccc(Nc2ccc([N+](=O)[O-])c(C(F)(F)F)c2)cc1)N1CCN(Cc2cc3cc(Cl)ccc3o2)CC1 [Compound 184, 1-[4-[(5-chloro-1-benzofuran-2-yl)methyl]piperazin-1-yl]-2-(4-[[4-nitro-3-(trifluoromethyl)phenyl]amino]phenoxy)ethan-1-one] | ≥ 90% | – | < 1 µg/mL |
| O=C(NCCOc1ccc(Nc2ccc([N+](=O)[O-])c(C(F)(F)F)c2)cc1)C(=O)NCC1Cc2cc(F)ccc2O1 (centres unmarked) [Compound 225, N^1-((5-fluoro-2,3-dihydrobenzofuran-2-yl)methyl)-N^2-(2-(4-(4-nitro-3-(trifluoromethyl)phenylamino)phenoxy)ethyl)oxalamide] | ≥ 90% | – | < 1 µg/mL |
| O=C(CO[C@H]1CC[C@H](Nc2ccc([N+](=O)[O-])c(C(F)(F)F)c2)CC1)N1CCN(Cc2oc3ccc(C(F)(F)F)cc3c2Cl)CC1 [Compound 253, 1-(4-[[3-chloro-5-(trifluoromethyl)-1-benzofuran-2-yl]methyl]piperazin-1-yl)-2-[[4-[[4-nitro-3-(trifluoromethyl)phenyl]amino]cyclohexyl]oxy]ethan-1-one] | ≥ 90% | – | < 0.1 µg/mL |
| N#Cc1ccc(N[C@H]2CC[C@H](OCC(=O)N3CCN(Cc4oc5ccc(C(F)(F)F)cc5c4Cl)CC3)CC2)cc1C(F)(F)F [Compound 305, 4-(4-{2-[4-(3-chloro-5-trifluoromethyl-benzofuran-2-ylmethyl)-piperazin-1-yl]-2-oxo-ethoxy}-cyclohexylamino)-2-trifluoromethyl-benzonitrile] | ≥ 90% | – | < 0.1 µg/mL |
| O=C(CO[C@H]1CC[C@H](Nc2ccc([N+](=O)[O-])c(C(F)(F)F)c2)CC1)N1CCN(Cc2cc3cc(F)ccc3o2)CC1 [Compound 179, 1-[4-[(5-fluoro-1-benzofuran-2-yl)methyl]piperazin-1-yl]-2-[(4-[[4-nitro-3-(trifluoromethyl)phenyl]amino]cyclohexyl)oxy]ethan-1-one] | ≥ 90% | – | < 1 µg/mL |
| CC(O[C@H]1CC[C@H](Nc2ccc([N+](=O)[O-])c(C(F)(F)F)c2)CC1)C(=O)N1CCN(c2ccc3cc(F)ccc3n2)CC1 (some centres unmarked) [Compound 251, 1-[4-(6-fluoroquinolin-2-yl)piperazin-1-yl]-2-[[4-[[4-nitro-3-(trifluoromethyl)phenyl]amino]cyclohexyl]oxy]propan-1-one] | ≥ 90% | – | < 1 µg/mL |
| O=C(NCCO[C@H]1CC[C@H](Nc2ccc([N+](=O)[O-])c(C(F)(F)F)c2)CC1)C(=O)NCC1Cc2cc(Cl)ccc2O1 (some centres unmarked) [Compound 218, N^1-[(5-chloro-2,3-dihydro-1-benzofuran-2-yl)methyl]-N^2-[2-[(4-[[4-nitro-3-(trifluoromethyl)phenyl]amino]cyclohexyl)oxy]ethyl]ethanediamide] | ≥ 90% | – | < 1 µg/mL |
| O=C(CO[C@H]1CC[C@H](Nc2ccc([N+](=O)[O-])c(C(F)(F)F)c2)CC1)N1CCN(C(=O)C2Cc3cc(Cl)ccc3O2)CC1 (some centres unmarked) [Compound 79, 1-[4-[(5-chloro-2,3-dihydro-1-benzofuran-2-yl)carbonyl]piperazin-1-yl]-2-[(4-[[4-nitro-3-(trifluoromethyl)phenyl]amino]cyclohexyl)oxy]ethan-1-one] | ≥ 90% | – | < 5 µg/mL |
| O=C(NCCO[C@H]1CC[C@H](Nc2ccc([N+](=O)[O-])c(C(F)(F)F)c2)CC1)C(=O)NCC1Cc2ccccc2O1 (some centres unmarked) [Compound 216] | ≥ 90% | – | < 1 µg/mL |
| CC(CN1CCN(c2ccc3cc(Cl)ccc3n2)CC1)C(=O)N1CCC(Nc2ccc([N+](=O)[O-])c(C(F)(F)F)c2)CC1 (centres unmarked) [Compound 93, 3-[4-(6-chloroquinolin-2-yl)piperazin-1-yl]-2-methyl-1-(4-[[4-nitro-3-(trifluoromethyl)phenyl]amino]piperidin-1-yl)propan-1-one] | ≥ 90% | – | < 5 µg/mL |
| O=C(CO[C@H]1CC[C@H](Nc2ccc([N+](=O)[O-])c(C(F)(F)F)c2)CC1)N1CCN(c2ccc3ccccc3n2)CC1 [Compound 88, 2-((1R,4R)-4-(4-nitro-3-(trifluoromethyl)phenylamino)cyclohexyloxy)-1-(4-(quinolin-2-yl)piperazin-1-yl)ethanone] | ≥ 90% | – | < 5 µg/mL |
| O=[N+]([O-])c1ccc(N[C@H]2CC[C@H](OCC(=S)N3CCN(c4ccc5cc(F)ccc5c4)CC3)CC2)cc1C(F)(F)F [Compound 263, 1-[4-(6-fluoro-naphthalen-2-yl)-piperazin-1-yl]-2-[4-(4-nitro-3-trifluoromethyl-henylamino)-cyclohexyloxy]-ethanethione] | ≥ 90% | – | < 1 µg/mL |
| O=C(COc1ccc(Nc2ccc([N+](=O)[O-])c(C(F)(F)F)c2)cc1)N1CCN(Cc2cc3cc(F)ccc3o2)CC1 [Compound 186] | ≥ 90% | – | < 1 µg/mL |
| O=C(NCCOc1ccc(Nc2ccc([N+](=O)[O-])c(C(F)(F)F)c2)cc1)C(=O)NCC1Cc2cc(Cl)ccc2O1 (centres unmarked) [Compound 226, N^1-((5-chloro-2,3-dihydrobenzofuran-2-yl)methyl)-N^2-(2-(4-(4-nitro-3-(trifluoromethyl)phenylamino)phenoxy)ethyl)oxalamide] | ≥ 90% | – | < 1 µg/mL |
| O=C(CO[C@H]1CC[C@H](Nc2ccc([N+](=O)[O-])c(C(F)(F)F)c2)CC1)N1CCN(c2ccc3cc(C(F)(F)F)ccc3c2)CC1 [Compound 232, 2-[4-(4-nitro-3-trifluoromethyl-phenylamino)-cyclohexyloxy]-1-[4-(6-trifluoromethyl-naphthalen-2-yl)-piperazin-1-yl]-ethanone] | ≥ 90% | – | < 5 µg/mL |
| O=C(NCCO[C@H]1CC[C@H](Nc2ccc([N+](=O)[O-])c(C(F)(F)F)c2)CC1)C(=O)NCc1cc2ccccc2o1 [Compound 220, N^1-(benzofuran-2-ylmethyl)-N^2-(2-(4-(4-nitro-3-(trifluoromethyl)phenylamino)cyclohexyloxy)ethyl)oxalamide] | ≥ 90% | – | < 1 µg/mL |
| Cc1cc(N2CCN(C(=O)CO[C@H]3CC[C@H](Nc4ccc([N+](=O)[O-])c(C(F)(F)F)c4)CC3)CC2)nc2ccc(Br)cc12 [Compound 277, 1-[4-(6-bromo-4-methyl-2-quinolyl)piperazin-1-yl]-2-[4-[4-nitro-3-(trifluoromethyl)anilino]cyclohexoxy]ethanone] | ≥ 90% | – | < 5 µg/mL |
| O=C(CO[C@H]1CC[C@H](Nc2ccc([N+](=O)[O-])c(C(F)(F)F)c2)CC1)N1CCc2cc(F)ccc2C1 [Compound 193, 1-(6-fluoro-1,2,3,4-tetrahydroisoquinolin-2-yl)-2-[[4-[[4-nitro-3-(trifluoromethyl)phenyl]amino]cyclohexyl]oxy]ethan-1-one] | – | – | < 1 µg/mL |
| O=C(CO[C@H]1CC[C@H](Nc2ccc([N+](=O)[O-])c(C(F)(F)F)c2)CC1)N1CCN(c2cccc3ccccc23)CC1 [Compound 20, 1-[4-(naphthalen-1-yl)piperazin-1-yl]-2-[(4-[[4-nitro-3-(trifluoromethyl)phenyl]amino]cyclohexyl)oxy]ethan-1-one] | – | – | < 1 µg/mL |
| O=C(NCCOc1ccc(Nc2ccc([N+](=O)[O-])c(C(F)(F)F)c2)cc1)C(=O)NCc1cc2cc(Cl)ccc2o1 [Compound 230, N^1-((5-chlorobenzofuran-2-yl)methyl)-N^2-(2-(4-(4-nitro-3-(trifluoromethyl)phenylamino)phenoxy)ethyl)oxalamide] | – | – | < 5 µg/mL |
| O=C(CO[C@H]1CC[C@H](Nc2ccc([N+](=O)[O-])c(C(F)(F)F)c2)CC1)N1CCc2ccccc2C1 [Compound 192, 2-[[4-[[4-nitro-3-(trifluoromethyl)phenyl]amino]cyclohexyl]oxy]-1-(1,2,3,4-tetrahydroisoquinolin-2-yl)ethan-1-one] | – | – | < 1 µg/mL |
| CC(CN1CCN(c2cccc3ccccc23)CC1)C(=O)N1CCC(Nc2ccc([N+](=O)[O-])c(C(F)(F)F)c2)CC1 (centres unmarked) [Compound 19, 2-methyl-3-(4-naphthalen-1-yl-piperazin-1-yl)-1-[4-(4-nitro-3-trifluoromethyl-phenylamino)-piperidin-1-yl]-propan-1-one] | – | – | < 1 µg/mL |
| O=C(CO[C@H]1CC[C@H](Nc2ccc([N+](=O)[O-])c(C(F)(F)F)c2)CC1)Nc1ccc2cc(C(F)(F)F)ccc2n1 [Compound 210, 2-[[4-[[4-nitro-3-(trifluoromethyl)phenyl]amino]cyclohexyl]oxy]-N-[6-(trifluoromethyl)quino-lin-2-yl]acetamide] | – | – | < 1 µg/mL |
